The chromatographic logP is a lipophilicity value derived from retention on a column.

The values below come from patent US12653191B2, “Active compound combinations” (Bayer Aktiengesellschaft, priority 2020, dated 2026).

Series [1] concerns Fusarium culmorum. The series can be described thus: in vitro-Test with fungal microorganisms, Method A (tables G1-G4). The conditions noted are these: alone. The class given is cell-based. Summed up: (§1)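 Methanol/emulsifier compound solution evaporated in well; liquid potato dextrose medium + spore or mycelium suspension added; 20° C, 85% RH, 3-5 d; photometric read 620 nm; % efficacy vs untreated.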

The test system of series [2] is Alternaria alternate. The series can be described thus: in vitro-Test with fungal microorganisms, Method A (tables A1-A12). It is filed as cell-based, Alternaria alternata. The conditions noted are these: applied alone. Summed up:
as §1

The test system of series [3] is Cercospora beticola. The series can be described thus: in vitro-Test with fungal microorganisms, Method A (tables C1-C10). It is filed as cell-based. To be noted: Cercospora beticola, read-out: Efficacy %. Summed up:
as §1

Series [4] can be described thus: Log P by HPLC on reversed phase columns (LC-UV), method [a]: acidic range, 0.1% formic acid in water / acetonitrile. The class given is physicochemical. To be noted: method [a]: HPLC on reversed phase column, acidic range, 0.1% formic acid in water / acetonitrile.
Description: Measurement of Log P Values
Measurement of Log P values as provided herein was performed according to EEC directive 79/831 Annex V.A8 by HPLC (High Performance Liquid Chromatography) on reversed phase columns with the following methods: • ^[a]
If more than one Log P value is available within the same method, all the values are given and separated by “+”.
The subject of series [5] is Diaporthe citri. The series can be described thus: in vitro-Test with fungal microorganisms, Method A (tables F1-F11). The class given is cell-based. To be noted: applied alone. Summed up:
as §1

Series [6] has as its system Ustilago segetum var. avenae. The series can be described thus: in vitro-Test with fungal microorganisms, Method A (tables I1-I5). It is filed as cell-based. The conditions noted are these: alone, read-out: Efficacy %. Summed up: as §1

As to `Cc1ccc(CC2CON=C(c3cc(C)nnc3Oc3cccc(Cl)c3F)N2)c(Cl)c1` (racemic) [Compound I-302, rac-3-[3-(3-chloro-2-fluorophenoxy)-6-methylpyridazin-4-yl]-5-[(2-chloro-4-methylphenyl)methyl]-5,6-dihydro-4H-1,2,4-oxadiazine], the Efficacy in series [1] (0.004 ppm) is given as 4%; in series [5] (0.004 ppm), 1%. Besides, the inhibition of growth at 0.0008 ppm stood at 7% in series [1] (Fusarium culmorum, 0.0008 ppm, read-out: Efficacy); 9% in series [2] (Alternaria, 0.0008 ppm, read-out: Efficacy %); 0% in series [3] (0.0008 ppm); 0% in series [5] (Diaporthe citri, 0.0008 ppm, read-out: Efficacy); 0% in series [6] (0.0008 ppm). In addition, the inhibition of growth at 0.004 ppm was 4% in series [1] (Fusarium culmorum, 0.004 ppm, read-out: Efficacy); 6% in series [2] (Alternaria, 0.004 ppm, read-out: Efficacy %); 0% in series [3] (0.004 ppm); 1% in series [5] (Diaporthe citri, 0.004 ppm, read-out: Efficacy); 0% in series [6] (0.004 ppm). Besides, the inhibition of growth at 0.02 ppm in series [1] (Fusarium culmorum, 0.02 ppm, read-out: Efficacy) amounted to 2%; in series [2] (Alternaria, 0.02 ppm, read-out: Efficacy %), 36%; in series [3] (0.02 ppm) it was 31%; in series [5] (Diaporthe citri, 0.02 ppm, read-out: Efficacy), 0%; in series [6] (0.02 ppm), 0%. Moreover, the inhibition of growth at 0.1 ppm in series [1] (Fusarium culmorum, 0.1 ppm, read-out: Efficacy) turned out to be 0%; in series [2] (Alternaria, 0.1 ppm, read-out: Efficacy %) it was 100%; in series [3] (0.1 ppm), 35%; in series [5] (Diaporthe citri, 0.1 ppm, read-out: Efficacy), 20%; in series [6] (0.1 ppm), 0%. For the same molecule, the Efficacy % in series [2] (0.004 ppm) was 6%. The same molecule displayed a chromatographic logP in series [4] of 3.94.
